Holding throughout (format): cell-based, Wistar rats
The subject of assay [1] is cardiac muscle cells induced by Tunicamycin (TM). The assay is described as follows: Survival rate of TM-induced cardiac muscle cells detected by MTT method. To be noted: TM 5 μg/ml alone, MTT. The method, then: The separation and culture of cardiomyocyte refer to the method of differential adhesion separation (Kreider, A. Messing, H. Doan, S. U. Kim, R. P. Lisak and D. E. Pleasure, Enrichment of Schwann cell cultures from neonatal rat sciatic nerve by differential adhesion, Brain Res 2 (1981), pp. 433-444.), Wistar neonate rats newly born within 24 h were used to obtain primary cardiac muscle cells.
The separated cardiac muscle cells were inoculated in an amount of 10^4 cells per well to a 96-well plate, and the volume of each well was 100 μl (marginal wells were filled with sterile PBS). […] After continuous inoculation, each well was added with 20 μl of MTT solution (5 mg/ml, formulated with PBS (pH=7.4), i.e., 0.5% MTT), and the cultivation was continued for 4 h. After the end of cultivation, culture medium in wells was carefully sucked out. Each well was added with 150 μl of DMSO, shaken at a low speed in a shaking table for 10 min, so that the crystal was sufficiently dissolved. The optical density (OD) value of each well was measured at wavelength of 490 nm by enzyme-linked immunoassay instrument, and each well was repeatedly measured for 3 times and the results were recorded. The cell survival rate at each time point was calculated according to: […], and a cell growth curve was drawn by using time as abscissa and optical density as ordinate.
For orientation: Tetrazolium assays rely on reduction of a dye to a coloured formazan, in cell work by metabolically active cells.

Assay [2] deals with caspase-12 and cleaved caspase-12. The assay is described as follows: Western blot of caspase-12 and cleaved caspase-12 in TM-induced cardiac muscle cells. To be noted: TM 5 μg/ml induction alone. As to the method: (12000 rpm×10 min), collected supernatant. Nitrocellulose membrane was dipped in a transferring buffer for 15-20 min in advance. Sampled in 50 μg protein/lane, subjected to 10% polyacrylamide gel SDS-PAGE electrophoretic separation, the gel was then tiled in electrotransferring clamp, in which sponge, filter paper, gel, nitrocellulose membrane, filter paper and sponge were mounted from negative electrode to positive electrode in order. Constant current 350 mA, electrotransferred for 45 min. Electrotransferring membrane to […], the nitrocellulose membrane was taken out, the membrane was washed with TBST for 2 min, sealed with 5% defatted milk powder at room temperature for 1 h, added with first antibody (1:1000) and incubated at 4° C. overnight, the membrane was washed with TBST, 3 times×5 min, then […] second antibody was added, incubated at room temperature for 1 h, washed with TBST, 3 times×5 min, soaked separately with TSM1 and TSM2 for 5 min and 10 min, developed with chromogenic substrates 6.6 μl NBT and 3.3 μl BCIP dissolved in 1 ml of TSM2, after bonds become clear, the reaction was terminated by washing with water. After the end of development, the records were stored by scanning or taking photos.

The subject of assay [3] is primary cardiac muscle cells induced by TM. Kind of assay: Cardiomyocyte apoptosis induced by TM, AnnexinV-FITC flow cytometer. The settings on record: TM 5 μg/ml alone, 24 h. As to the method:
(§1) The primary cardiac muscle cells obtained by the method according to the culture method of primary cardiac muscle cells of Example 1 were added with tunicamycin (TM) on the 4th day to perform interference test. The cells were randomly divided into 5 groups: solvent control group (DMSO), TM interference group (5 μg/ml), Compound of Formula I+TM interference group (10 μM+5 μg/ml), Compound of Formula I interference group ([…]+5 μg/ml), Compound of Formula I interference group ([…]+5 μg/ml).
it is 24 h after drug interference, the cells were treated by the method of AnnexinV-FITC apoptosis kit, and the apoptosis was detected within 1 h by using a flow cytometer (BD ACScalibur, US Becton-Dickinson Company). For each sample, 14000 cells were collected and analyzed, the test was repeated for 3 times, and the average value was used as a result.

Assay [4] has the same test system. The assay is described as follows: Cardiomyocyte apoptosis induced by TM, TUNEL detection. To be noted: TM 5 μg/mL alone, 24 h, n = 6. The method, then:
as §1
It was 24 h after drug interference, the apoptotic cells were detected by terminal deoxynucleotidyl transferase-mediated biotinylated UTP nick end labeling (TUNEL) method, and the cells were treated according to the specification of kit. The cells treated with 0.1 mg/ml DNase I and growing on a glass slide were used as positive control. 5 or more visual fields were randomly selected under light microscope, the apoptotic cells (brown yellow granules seen in nucleus) among the cells were counted. Apoptosis rat=(number of positively stained nuclei/number of all nuclei)×100%.

Values joined by “and” are separate entries in the source; they are usually repeats but may differ in a detail not shown here. Identical values can stand only once. Marks after values point to notes of the source that are not given here.

For Tunicamycin [TM, reference compound], the “Cell survival rate (%)” value in assay [1] was found to be 58.8699 ± 10.7785 %. The “expression of Cleaved caspase-12” value in assay [2] is “obviously expressed”. For the same substance, the “Cardiomyocyte apoptosis rate detected by flow cytometer (%)” value in assay [3] is 29.98% and 29.98 ± 1.22^a %. In addition, the “TUNEL detection (%) cardiomyocyte apoptosis rate” value in assay [4] is on record as 30.84 ± 1.26 ^a %.

Source of the values: patent US8859587B2, “(2E)-3-phenyl-N-[2,2,2-Trifluoro-1-[[8-quinolineamino)thiomethyl]amino]ethyl]-2-acrylamide and pharmaceutical uses thereof” (Chinese PLA General Hospital, priority 2010, dated 2014).
